{
  "source": "patent US12036262B2",
  "about": "“Edible plant-derived nanoparticles for regulation of gut microbiota” (University of Louisville Research Foundation, Inc., priority 2017, dated 2024)",
  "key": {"colon lymphocytes": {"tested_on": "colon lymphocytes", "assay": "ELISA of IL-22 in supernatants of isolated colon lymphocytes", "assay_type": "cell-based, mice", "protocol": "Enzyme-Linked Immunosorbent Assay (ELISA). The cytokine IL-22, IL-1β, and TNFα levels in cell culture supernatants or mouse colon mucus were quantified using ELISA kits (eBioscience) according to the manufacturer's instructions. Briefly, a microtiter plate was coated with anti-mouse IL-22, IL-1β and TNFα antibody at 1:200 overnight at 4° C. Excess binding sites were blocked with 200 μl of 1×[…] Diluent (eBioscience, San Diego, California, United States of America) for 1 hour at 22° C. After washing three times with PBS containing 0.05% Tween 20, the plate was incubated with detection antibody in blocking buffer for 1 hour at 22° C. After three washes, avidin conjugated with horseradish peroxidase and substrate were each added sequentially for 1 hour and 30 min at 22° C. […] Isolation of Lymphoid Cells in the Colon. Intestinal lymphoid cells were isolated from the intestine by incubation in PBS supplemented with 1 mM EDTA, 15 mM HEPES and 10% FCS for 30 minutes at 37° C. Supernatants were discarded, and tissues were then incubated in RPMI supplemented with 15 mM HEPES and 300 units/mL collagenase type VIII (Sigma) for 30 minutes with gentle shaking. Lysates were gently pressed through nylon cell strainers (70 μm in diameter; […] Lymphocytes were recovered from the interface and washed twice."}, "IL-22, IL-1β, TNFα": {"tested_on": "IL-22, IL-1β, TNFα", "assay": "ELISA of IL-22, IL-1β and TNFα in colon mucus", "assay_type": "in vivo, mice", "protocol": "Enzyme-Linked Immunosorbent Assay (ELISA). The cytokine IL-22, IL-1β, and TNFα levels in cell culture supernatants or mouse colon mucus were quantified using ELISA kits (eBioscience) according to the manufacturer's instructions. Briefly, a microtiter plate was coated with anti-mouse IL-22, IL-1β and TNFα antibody at 1:200 overnight at 4° C. Excess binding sites were blocked with 200 μl of 1×ELISA/ELISPoT Diluent (eBioscience, San Diego, California, United States of America) for 1 hour at 22° C. After washing three times with PBS containing 0.05% Tween 20, the plate was incubated with detection antibody in blocking buffer for 1 hour at 22° C. After three washes, avidin conjugated with horseradish peroxidase and substrate were each added sequentially for 1 hour and 30 min at 22° C. An analysis of absorbance at 405 nm using a microtiter plate reader (BioTek Synergy HT, BioTek Instruments, Inc., Winooski, Vermont, United States of America) followed."}, "LGG": {"tested_on": "LGG", "assay": "HPLC analysis of tryptophan metabolites in LGG MRS broth", "assay_type": "cell-based, Lactobacillus rhamnosus", "protocol": "HPLC Analysis of Tryptophan Metabolites. The fecal samples and LGG MRS broth were diluted with an equal volume of methanol. After centrifugation at 10,000×g for 30 minutes, 50 μl of supernatant was injected for high-performance liquid chromatography (HPLC) analysis. The HPLC analysis was performed on an Agilent 1260 Infinity system equipped with an Agilent ZORBAX SB-C18 column (4.6×150 mm, 3.5 μm), with following parameters: mobile phase A: 5 mM NH4Ac in water modified with 0.1% formic acid (v/v); mobile phase B: 5 mM NH4Ac in 90% acetonitrile modified with 0.1% formic acid (v/v); gradient: 5% B in first 5 min, 5-20% B for 10 min, hold 20% B for 5 min, 20%-50% B for 5 min, hold 50% B for 5 min, 50%-100% B for 5 min, hold 100% B for 10 min, 100-5% B for 5 min; flow rate: 1.0 ml/min; temperature: 30° C. UV detection at 300 nm was used to monitor indole-3-carboxaldehyde (I3A) and indole-3-acetaldehyde (IAAld); FLD (ex=280 nm; em=350 nm) was used for detection of tryptophan and indole-3-acetamide (I3AM). The standard for I3A (Catalog No. 129445-5g), I3AM (Catalog No. 286281-1G), IAAld (Catalog No. I1000-25MG), and tryptophan (Catalog No. T0254-25g) were purchased from Sigma."}, "MC-38 cells": {"tested_on": "MC-38 cells", "assay": "Migration assay, intracellular LGG", "assay_type": "cell-based, C57BL/6 murine", "protocol": "Cells. C57BL/6 murine colon adenocarcinoma MC-38 cells (gender unknown; Kerafast, Inc., Boston, Massachusetts, United States of America) or human epithelial colorectal adenocarcinoma Caco-2 cells (American Type Culture Collection, ATCC®, Manassas, Virginia, United States of America) were grown in tissue culture plates with Dulbecco's modified Eagle's medium (DMEM) supplemented with 10% heat-inactivated fetal bovine serum (FBS), 100 U/mL penicillin, and 100 μg/mL streptomycin at 37° C. in a 5% CO2 atmosphere.\nMigration Assays. MC-38 or Caco-2 cells (ATCC) were seeded at 1×10^5 cells per well in a 12-well tissue culture plate with Dulbecco's modified Eagle's medium (DMEM) without antibiotics. The cells were inoculated with 1×10^7 bacteria per well for 90 minutes at 37° C. in a 5% CO2 atmosphere to allow bacterial adhesion and entry. The number of intracellular bacteria was quantified as described in Zhang & Wang, 1998."}, "monooxygenase ycnE": {"tested_on": "monooxygenase ycnE", "assay": "ycnE expression in LGG (qPCR, mRNA sequencing, LC-MS/MS)", "assay_type": "cell-based, Lactobacillus rhamnosus", "protocol": "Quantitative Real-Time PCR for RNA Expression. The quantity of mature miRNAs was determined with quantitative real-time PCR (qPCR) using a miScript II RT kit (QIAGEN Inc., Germantown, Maryland, United States of America) and miScript SYBR Green PCR Kit (QIAGEN) with QIAGEN 3′ universal primers. For analysis of gene mRNA expression, 1 μg of total RNA was reverse transcribed using SuperScript III reverse transcriptase (Invitrogen, Waltham, Massachusetts, United States of America), and quantitation was performed using SsoAdvanced™ Universal SYBR Green Supermix (Bio-Rad Laboratories, Inc., Hercules, California, United States of America) and the listed primers (Table 1) with SsoAdvanced™ Universal SYBR Green Supermix (Bio-Rad). qPCR was performed using a Bio-Rad CFX96 qPCR System with each reaction run in triplicate. Analysis and fold-changes were determined using the comparative threshold cycle (Ct) method. Changes in miRNA or mRNA expression were calculated as fold-change. […]\nLGG mRNA Sequencing. […] Following quantitation with Qubit dsDNA HS Reagent (Catalog No., Q32854; Thermo Scientific,), 10 ng of dscDNA/sample was fragmented with an E220 Focused-ultrasonicator (Covaris, Matthews, North Carolina, United States of America). […] Libraries were then combined into equimolar pools, which were then measured for size and concentration. […] The first and second reads were each 83 bases."}},
  "data": [
    {"compound": "O=Cc1c[nH]c2ccccc12", "note": "[I3A, indole-3-carboxaldehyde]", "values": [
      {"measurement": "induction of IL-22 in colon lymphocytes from AHR KO mice", "setting": "colon lymphocytes; AHR KO mice", "value": "no evidence of an impact"},
      {"measurement": "IL-22 in supernatants of colon lymphocytes", "setting": "colon lymphocytes; colon lymphocytes from naïve B6 mice incubated for 3 hours", "value": "induced expression of IL-22"}
    ]},
    {"compound": "NC(=O)Cc1c[nH]c2ccccc12", "note": "[I3AM, indole-3-acetamide]", "values": [
      {"measurement": "inhibitory effect on IL-22 production in AHR KO mice", "setting": "IL-22, IL-1β, TNFα; AHR KO mice treated with LGG supernatant exposed to I3AM", "value": "did not occur"},
      {"measurement": "production of IAAld and I3A by LGG", "setting": "LGG; MRS media, different concentrations of I3AM", "value": "inhibited the production of IAAld and I3A in a dose-dependent manner"},
      {"measurement": "GELN-RNA-mediated induction of the I3A precursor IAAld in LGG cultures", "setting": "LGG; addition of I3AM to LGG cultures", "value": "significantly inhibited"}
    ]},
    {"compound": "O=CCc1c[nH]c2ccccc12", "note": "[IAAld, indole-3-acetaldehyde]", "values": [
      {"measurement": "I3AM-mediated inhibitory effect on IL-22 production", "setting": "IL-22, IL-1β, TNFα; colon mucus of WT mice gavaged with MRS medium from treated LGG", "value": "cancelled the I3AM-mediated inhibitory effort on IL-22 production"},
      {"measurement": "inhibitory effect of I3AM on the production of I3A", "setting": "LGG; additional IAAld", "value": "cancelled"}
    ]},
    {"compound": "ath-miR827: GELN-derived miRNA, SEQ ID NO: 81 (UUAGAUGACCAUCAACAAACU; expressed or natural sequence)", "values": [
      {"measurement": "LGG entry into MC38 cells", "setting": "MC-38 cells", "value": "could prevent the entry of LGG into gut epithelial cells"}
    ]},
    {"compound": "ath-miR842: GELN-derived miRNA, SEQ ID NO: 82 (UCAUGGUCAGAUCCGUCAUCC; expressed or natural sequence)", "values": [
      {"measurement": "LGG entry into MC38 cells", "setting": "MC-38 cells", "value": "could prevent the entry of LGG into gut epithelial cells"}
    ]},
    {"compound": "mdo-miR7267-3p: GELN-derived miRNA, SEQ ID NO: 129 (CAUCCAGCCAUCCACCCCAGGCCAUC; expressed or natural sequence)", "values": [
      {"measurement": "I3A in LGG cultures", "setting": "LGG", "value": "induction of I3A"},
      {"measurement": "I3AM in LGG cultures", "setting": "LGG", "value": "inhibition of I3AM"},
      {"measurement": "ycnE expression in LGG", "setting": "monooxygenase ycnE", "value": "indeed inhibited"}
    ]}
  ]
}
